What all share (assay): inhibition of tumour cell growth, NCI panel, 48 h
Assay [1] relates to 786-0 renal.
Assay [2] relates to BT-549 breast.
For assay [3], the system named is CAKI-1 renal.
The test system of assay [4] is HCC-2998 colon.
Assay [5] relates to IGROV1 ovarian.
Assay [6] deals with M14 melanoma.
In assay [7] the test system is NCI-H460 lung.
Assay [8] concerns OVCAR-5 ovarian.
Assay [9] relates to SK-OV-3 ovarian.
For assay [10], the system named is U251 CNS.

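Step 1: Grow cells in 96-well plates. Step 2: Expose to compound for 48 hours at 5 concentrations. Step 3: Interpolate endpoints linearly; if unreached, use highest concentration. GI50 is the concentration that inhibits growth by half. At the TGI there is no net growth.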

Among the data in PubChem BioAssay (NCI) are GI50 and TGI values, retold here.

For `O=C1C2=C(C(=O)c3cnccc31)C1C=CC2CC1` (centres undefined), the GI50 in assay [1] was 1.95 µM; in [2] it was 5.86 µM; in assay [3], 3.57 µM; in [4] it was 8.74 µM; in assay [5] it was 2.2 µM; in [6] it was 1.94 µM. For the same molecule, the GI50 in assay [7] was 8.48 µM; in assay [8], 1.93 µM; in assay [9], 5.58 µM; in [10] it was 1.76 µM. In addition, the TGI in assay [1] was found to be 3.37 µM; in assay [2] it was 10.3 µM; in [3], 9.33 µM; in [4], 21.2 µM; in assay [5] it was 4.31 µM; in [6] it was 3.41 µM. The TGI worked out at 21.7 µM in assay [7], 3.71 µM in assay [8], 10.4 µM in assay [9] and 3.19 µM in [10].
Regarding `CC1CN(S(=O)(=O)c2oc(-c3ccc(Cl)cc3)nc2C#N)CC(C)O1` (centres undefined), the GI50 in assay [1] was 1.62 µM; in assay [2], 1.97 µM; in assay [3], 1.56 µM; in assay [4] it was 2.27 µM; in [5] it was 1.87 µM; in assay [6] it was 1.62 µM. Further, the GI50 is 11.5 µM in assay [7], 2.07 µM in [8], 25.1 µM in [9] and 9.4 µM in [10]. Besides, the TGI in [1] is 3.3 µM; in assay [2], 4.49 µM; in [3], 2.93 µM; in [4], 5.43 µM; in assay [5], 3.69 µM; in assay [6], 3.39 µM. Besides, the TGI in assay [7] was determined as 26 µM; in [8], 4.44 µM; in [9], 70.6 µM; in [10], 22.7 µM.
For the molecule `CC[C@@]1(OC(=O)CN)C(=O)OCc2c1cc1n(c2=O)Cc2c-1nc1cc3c(cc1c2CCl)OCO3`, the GI50 in assay [1] was 0.0102 µM; in [2], 0.0918 µM; in assay [3], below 0.01 µM; in assay [4], 0.283 µM; in [5], 0.234 µM; in assay [6] it was 0.0102 µM. Besides, the GI50 in assay [7] was below 0.01 µM; in assay [8] it was 1.03 µM; in assay [9] it was 0.375 µM; in assay [10], 0.0185 µM. Moreover, the TGI is above 33.8 µM in assay [1]; 2.54 µM in [2]; 1.98 µM in assay [3]; 3.76 µM in assay [4]; 15.1 µM in assay [5]; 4.44 µM in assay [7]. Also, the figures for the TGI in assay [8], in [9] and in assay [10] were 13 µM, above 31.6 µM and above 42.9 µM, respectively.
As to `CCCCCCCCOC(=O)c1c(C)[nH]c(/C=C2\N=C(c3ccc[nH]3)C=C2OC)c1C`, the GI50 was 0.0407 µM in [1]; 0.164 µM in assay [2]; below 0.0214 µM in assay [3]; 0.0398 µM in assay [4]; 0.0414 µM in [5]; 0.0351 µM in [6]. Moreover, the GI50 in assay [7] is 0.0765 µM; in assay [8], 0.0943 µM; in assay [9], 0.899 µM; in assay [10], 0.0258 µM. The TGI in [1] was 1.32 µM; in [2] it was 14.4 µM; in assay [3], 4.83 µM; in [4] it was 3.46 µM; in assay [5] it was 6.81 µM; in [6], 2.01 µM. Besides, the TGI in [7] was determined as 11 µM; in assay [8] it was 3.45 µM; in assay [9], 15.9 µM; in assay [10], 1.65 µM.
Regarding `CCCCCN(CCCCC)CC(O)c1cc(Cl)ccc1OC` (centres undefined), the GI50 is 13 µM in [1]; 15.9 µM in [2]; 2.81 µM in [3]; 5.72 µM in [4]; 3 µM in assay [5]; 8.81 µM in assay [6]. Moreover, the GI50 in [7] was 4.7 µM; in [8], 10.4 µM; in assay [9] it was 12.8 µM; in assay [10], 10.7 µM. In addition, the TGI in [1] stood at 27.4 µM; in assay [2], 38.3 µM; in assay [3] it was 16.6 µM; in [4] it was 17.8 µM; in [5], 15.1 µM; in [6], 22.6 µM. Moreover, the TGI is 18 µM in assay [7], 23.8 µM in assay [8], 29.5 µM in assay [9] and 25.5 µM in assay [10].
Regarding `COc1cccc(CN(C)c2ccc(CO)c(Cl)c2)c1`, the GI50 was 13.9 µM in [1]; 19.8 µM in assay [2]; 2.82 µM in assay [3]; 16.9 µM in [4]; 0.216 µM in assay [5]; 25.2 µM in assay [6]. Moreover, the GI50 in assay [7] is 0.97 µM; in [8], 0.322 µM; in [9], 11.3 µM; in assay [10] it was 3.32 µM. Moreover, the TGI is above 67.6 µM in [1]; 80 µM in assay [2]; above 59.3 µM in assay [3]; 74.8 µM in assay [4]; 2.6 µM in assay [5]; above 100 µM in assay [6]. Further, the TGI was 21 µM in assay [7], 1.91 µM in [8], above 60.7 µM in assay [9] and above 64.1 µM in [10].
